Assay results from patent publication EP1272659B1, “EARLY DIAGNOSIS OF M[…] HUMAN BEINGS” (Università degli Studi di Roma " Tor Vergata", priority 2000, dated 2001).

Target: T1, FAAH (anandamide hydrolase; arachidonoylethanolamide amidohydrolase, EC 3.5.1.4) in human lymphocyte homogenates (Homo sapiens, UniProt O00519)
T1 construct: Lymphocytes were purified from peripheral blood by gradient centrifugation; from tissue; host or cells: human peripheral blood lymphocytes of pregnant women, homogenate
T1 sequence (O00519 1-579): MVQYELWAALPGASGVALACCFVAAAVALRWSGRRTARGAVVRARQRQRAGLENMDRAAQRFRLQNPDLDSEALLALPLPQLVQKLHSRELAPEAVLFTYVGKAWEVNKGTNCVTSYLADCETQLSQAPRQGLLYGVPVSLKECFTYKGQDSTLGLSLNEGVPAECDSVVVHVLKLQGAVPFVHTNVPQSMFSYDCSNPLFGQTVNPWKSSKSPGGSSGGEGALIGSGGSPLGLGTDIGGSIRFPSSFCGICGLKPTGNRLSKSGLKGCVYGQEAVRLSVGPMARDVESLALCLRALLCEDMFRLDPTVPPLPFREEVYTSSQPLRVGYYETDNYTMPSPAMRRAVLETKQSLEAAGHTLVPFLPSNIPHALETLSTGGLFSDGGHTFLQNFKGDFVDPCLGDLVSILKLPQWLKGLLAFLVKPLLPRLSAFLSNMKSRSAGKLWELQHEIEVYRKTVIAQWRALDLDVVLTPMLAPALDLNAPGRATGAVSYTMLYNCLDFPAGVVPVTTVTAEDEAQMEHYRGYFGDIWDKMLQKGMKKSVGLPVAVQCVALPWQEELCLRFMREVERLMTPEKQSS
Assay: Kinetic analysis of FAAH activity in human lymphocyte homogenates: release of [1-14C]arachidonic acid from [1-14C]anandamide, reversed phase HPLC
Assay type: biochemical
Details: <8 weeks of pregnancy; for apparent maximum velocity (Vmax): lymphocyte homogenates
Description: The activity of FAAH (arachidonoylethanolamide amidohydrolase, EC 3.5.1.4) in human lymphocyte homogenates (20 µg/test) was determined by measuring the release of [1-^14C] arachidonic acid from [1-^14C] anandamide (NEN DuPont de Nemours, 52 mCi/mmol), using reversed phase high performance liquid cromatography as reported in Maccarrone et al. 1998.
The difference in FAAH activity between the group of 43 subjects with normal pregnancy (mean value = 169.60 ± 30.20 pmol.min^-1.mg protein^-1) and the group of 7 women who aborted (mean value 60.43 ± 29.34 pmol.min^-1.mg protein^-1) was statistically significant (P<0.0001 by the Mann-Whitney test). Embryonic death occurred approximately 10 days later, i.e. at 8 to 11 weeks for the subjects <7- to <10-week pregnant, respectively. […] On the other hand, the bell-shaped curve found for FAAH activity in normal subjects is frequently observed with biological indicators of the first trimester of pregnancy, such as the beta-subunit of human chorionic gonadotropin (Goldstein in Obstet Gynecol 1994).
FAAH (arachidonoylethanolamide amidohydrolase, EC 3.5.1.4) activity in human lymphocyte homogenates (20 µg/test) was determined by measuring the release of [1-^14C]arachidonic acid from [1-^14C] anandamide (NEN DuPont de Nemours, 52 mCi/mmol), using reverse phase high performance liquid cromatography as reported (Maccarrone et al. 1998). It has to be pointed out that the use of [^3H] anandamide, measuring the release of [^3H]arachidonic acid, yields the same results.

## CCCCC/C=C\C/C=C\C/C=C\C/C=C\CCCC(=O)NCCO [anandamide, arachidonoylethanolamide]
Subjects who miscarried
  apparent maximum velocity (Vmax): 75 ± 8 pmol.min^-1.mg protein^-1
Subjects with normal gestation
  apparent maximum velocity (Vmax): 187 ± 20 pmol.min^-1.mg protein^-1
read-out: apparent Michaelis-Menten constant (Km), lymphocyte homogenates (20 µg/test), same value for subjects with normal gestation and those who miscarried
  Km: 8 ± 1 µM
